Data published in patent publication US20150025012A1, “METHODS AND COMPOSITIONS FOR IDENTIFICATION, ASSESSMENT AND TREATMENT OF CANCERS ASSOCIATED WITH HEDGEHOG SIGNALING” (Infinity Pharmaceuticals, Inc., priority 2010, published 2015).
Counter-ions that a name gives are not always drawn.

Assays:
hedgehog pathway = assay: C3H10T1/2 alkaline phosphatase assay (Shh-dependent osteoblast differentiation); format: cell-based; conditions: Mus musculus, C3H 10T1/2; HCl salt; sonic hedgehog 250 ng/ml; AP activity normalized against total protein; read-out: IC50 (antagonist of the hedgehog pathway)
Description: An exemplary assay to evaluate the activity of a hedgehog inhibitor is as follows. C3H10T1/2 cells differentiate into osteoblasts when contacted with the sonic hedgehog peptide (Shh-N). Upon differentiation, these osteoblasts produce high levels of alkaline phosphatase (AP) which can be measured in an enzymatic assay (Nakamura et al., 1997 BBRC 237: 465). Compounds that block the differentiation of C3H10T1/2 into osteoblasts (a Shh dependent event) can therefore be identified by a reduction in AP production (van der Horst et al., 2003 Bone 33: 899). The assay details are described below. Additional assays to ascertained the activity of hedgehog inhibitors, including IPI-926, are described in US 2009/0181997 by Grayzel et al., U.S. Ser. No. 61/327,373 and 61/331,365, filed on Apr. 23, 2010 and May 4, 2010, respectively; the entire contents of the aforesaid applications are incorporated herein by reference. […]
C3H10T1/2 cells were plated in 96 wells with a density of 8×10^3 cells/well. […] After incubating for 30 min at 37° C., the plates were read on an Envision plate reader at 405 nm. Total protein was quantified with a BCA protein assay kit from Pierce according to manufacturer's instructions. […]

human SHh expression = assay: Hedgehog ligand expression in bladder cancer cells after chemotherapy; format: cell-based; conditions: 24, 48, 72 hours, highest after 144 hours
Bx-PC3 tumors = assay: Growth of Bx-PC3 tumors in mice; format: in vivo; conditions: single agents and combination
Description: Bevacizumab, a monoclonal antibody, exerts its activity by neutralizing VEGF, a factor important of the proliferation and survival of endothelial cells. […] In the same study, the relative effect of these agents was explored by measuring the mRNA expression of PECAM-1, a marker of endothelial cells and RGS5, a marker of pericytes. […] The role of the vasculature and its supporting pericyte population in the mechanism of action of IPI-926 continues to be explored.
For in vivo studies, tumors were grown in male NCR-nu/nu mice by subcutaneous injection of 5×10^6 cells. Tumor growth was monitored using calipers. When tumors reached an approximate size of 200 mm^3, tumor bearing animals were randomized into treatment arms and administered agents or vehicles as described.

## CC1=C2C[C@H]3[C@@H](CC[C@@H]4C[C@H](NS(C)(=O)=O)CC[C@@]43C)[C@@H]2CC[C@@]2(C1)O[C@@H]1C[C@H](C)CN[C@H]1[C@H]2C [IPI-926 (HCl salt)]
Hedgehog pathway
  IC50: < 0.02 µM

## COc1cccc2c1C(=O)c1c(O)c3c(c(O)c1C2=O)C[C@@](O)(C(=O)CO)C[C@@H]3O[C@H]1C[C@H](N)[C@H](O)[C@H](C)O1 [doxorubicin]
Human SHh expression
  human SHh expression: increase

## Nc1ccn([C@@H]2O[C@H](CO)[C@@H](O)C2(F)F)c(=O)n1 [gemcitabine]
Human SHh expression
  human SHh expression: increase

## Bevacizumab: a monoclonal antibody, exerts its activity by neutralizing VEGF
Bx-PC3 tumors
  activity on the growth of Bx-PC3 tumors: approximately the same single agent activity
